Activity calls are given as the source filed them. No cut-off for these calls is given here. Starred links: 1 amine or outer side, 2 acyl side, 3 side chain; linkers in the order of their positions; H or OH if unused. Non-standard residues stand in square brackets, D forms with d. Residues, ends and D or L forms follow the SMILES beside them. N(2-mercaptoethyl)Gly = O=C(CN(CCS[*:3])[*:1])[*:2]; hCys = N[C@@H](CCS)C(=O)O; Nphe = O=C(O)CNCc1ccccc1; Nlys = NCCCCNCC(=O)O
species: Bos taurus; experiment: Inhibition of bovine trypsin

| Ka | Compound |
| --- | --- |
| inactive | CC[C@H](C)[C@@H]1NC(=O)[C@@H]2CCCN2C(=O)[C@@H]2CCCN2C(=O)[C@H]([C@@H](C)CC)NC(=O)[C@H](CO)NC(=O)CN(CCCCN)C(=O)[C@H]([C@@H](C)O)NC(=O)CN(CCS)C(=O)[C@H](CCCNC(=N)N)NC(=O)CNC(=O)[C@H](CC(=O)O)NC(=O)[C@@H]2CCCN2C(=O)[C@H](Cc2ccccc2)NC(=O)CN(CCS)C1=O (cyclo(DGR[N(2-mercaptoethyl)Gly]T[Nlys]SIPPI[N(2-mercaptoethyl)Gly]FP)) |
| inactive | CC[C@H](C)[C@@H]1NC(=O)[C@@H]2CCCN2C(=O)[C@@H]2CCCN2C(=O)[C@H]([C@@H](C)CC)NC(=O)[C@H](CO)NC(=O)[C@H](CCCCN)NC(=O)[C@H]([C@@H](C)O)NC(=O)CN(CCS)C(=O)[C@H](CCCNC(=N)N)NC(=O)CNC(=O)[C@H](CC(=O)O)NC(=O)[C@@H]2CCCN2C(=O)[C@H](Cc2ccccc2)NC(=O)CN(CCS)C1=O (cyclo(DGR[N(2-mercaptoethyl)Gly]TKSIPPI[N(2-mercaptoethyl)Gly]FP)) |
| 9.9 ×10⁹ /M | CC[C@H](C)[C@@H]1NC(=O)[C@@H]2CCCN2C(=O)[C@@H]2CCCN2C(=O)[C@H]([C@@H](C)CC)NC(=O)[C@H](CO)NC(=O)[C@H](CCCCN)NC(=O)[C@H]([C@@H](C)O)NC(=O)[C@H](CS)NC(=O)[C@H](CCCNC(=N)N)NC(=O)CNC(=O)[C@H](CC(=O)O)NC(=O)[C@@H]2CCCN2C(=O)[C@H](Cc2ccccc2)NC(=O)[C@H](CS)NC1=O |
| 1.1 ×10¹⁰ /M | CC[C@H](C)[C@@H]1NC(=O)[C@@H]2CCCN2C(=O)[C@@H]2CCCN2C(=O)[C@H]([C@@H](C)CC)NC(=O)[C@H](CO)NC(=O)[C@H](CCCCN)NC(=O)[C@H]([C@@H](C)O)NC(=O)[C@@H]2CSSC[C@H](NC1=O)C(=O)N[C@@H](Cc1ccccc1)C(=O)N1CCC[C@H]1C(=O)N[C@@H](CC(=O)O)C(=O)NCC(=O)N[C@@H](CCCNC(=N)N)C(=O)N2 |

species: Bos taurus; experiment: Inhibition of bovine chymotrypsin

| Ka | Compound |
| --- | --- |
| 1.15 ×10⁵ /M | CC[C@H](C)[C@@H]1NC(=O)[C@@H]2CCCN2C(=O)[C@@H]2CCCN2C(=O)[C@H]([C@@H](C)CC)NC(=O)[C@H](CO)NC(=O)CN(Cc2ccccc2)C(=O)[C@H]([C@@H](C)O)NC(=O)[C@@H](C(C)(C)S)NC(=O)[C@H](CCCNC(=N)N)NC(=O)CNC(=O)[C@H](CC(=O)O)NC(=O)[C@@H]2CCCN2C(=O)[C@H](Cc2ccccc2)NC(=O)[C@H](CS)NC1=O |
| 4.9 ×10⁶ /M | CC[C@H](C)[C@@H]1NC(=O)[C@@H]2CCCN2C(=O)[C@@H]2CCCN2C(=O)[C@H]([C@@H](C)CC)NC(=O)[C@H](CO)NC(=O)[C@H](CCCCN)NC(=O)[C@H]([C@@H](C)O)NC(=O)[C@H](CS)NC(=O)[C@H](CCCNC(=N)N)NC(=O)CNC(=O)[C@H](CC(=O)O)NC(=O)[C@@H]2CCCN2C(=O)[C@H](Cc2ccccc2)NC(=O)[C@H](CS)NC1=O |
| inactive | CC[C@H](C)[C@@H]1NC(=O)[C@@H]2CCCN2C(=O)[C@@H]2CCCN2C(=O)[C@H]([C@@H](C)CC)NC(=O)[C@H](CO)NC(=O)[C@H](Cc2ccccc2)NC(=O)[C@H]([C@@H](C)O)NC(=O)CN(CCS)C(=O)[C@H](CCCNC(=N)N)NC(=O)CNC(=O)[C@H](CC(=O)O)NC(=O)[C@@H]2CCCN2C(=O)[C@H](Cc2ccccc2)NC(=O)[C@H](CS)NC1=O (cyclo(CFPDGR[N(2-mercaptoethyl)Gly]TFSIPPI)) |
| 3.11 ×10⁵ /M | CC[C@H](C)[C@@H]1NC(=O)[C@@H]2CCCN2C(=O)[C@@H]2CCCN2C(=O)[C@H]([C@@H](C)CC)NC(=O)[C@H](CO)NC(=O)CN(Cc2ccccc2)C(=O)[C@H]([C@@H](C)O)NC(=O)[C@@H](C(C)(C)S)NC(=O)[C@H](CCCNC(=N)N)NC(=O)CNC(=O)[C@H](CC(=O)O)NC(=O)[C@@H]2CCCN2C(=O)[C@H](Cc2ccccc2)NC(=O)[C@@H](C(C)(C)S)NC1=O |
| 5.2 ×10⁶ /M | CC[C@H](C)[C@@H]1NC(=O)[C@@H]2CCCN2C(=O)[C@@H]2CCCN2C(=O)[C@H]([C@@H](C)CC)NC(=O)[C@H](CO)NC(=O)[C@H](CCCCN)NC(=O)[C@H]([C@@H](C)O)NC(=O)[C@@H]2CSSC[C@H](NC1=O)C(=O)N[C@@H](Cc1ccccc1)C(=O)N1CCC[C@H]1C(=O)N[C@@H](CC(=O)O)C(=O)NCC(=O)N[C@@H](CCCNC(=N)N)C(=O)N2 |
| inactive | CC[C@H](C)[C@@H]1NC(=O)[C@@H]2CCCN2C(=O)[C@@H]2CCCN2C(=O)[C@H]([C@@H](C)CC)NC(=O)[C@H](CO)NC(=O)[C@H](Cc2ccccc2)NC(=O)[C@H]([C@@H](C)O)NC(=O)CN(CCS)C(=O)[C@H](CCCNC(=N)N)NC(=O)CNC(=O)[C@H](CC(=O)O)NC(=O)[C@@H]2CCCN2C(=O)[C@H](Cc2ccccc2)NC(=O)CN(CCS)C1=O (cyclo(DGR[N(2-mercaptoethyl)Gly]TFSIPPI[N(2-mercaptoethyl)Gly]FP)) |
| inactive | CC[C@H](C)[C@@H]1NC(=O)[C@@H]2CCCN2C(=O)[C@@H]2CCCN2C(=O)[C@H]([C@@H](C)CC)NC(=O)[C@H](CO)NC(=O)CN(Cc2ccccc2)C(=O)[C@H]([C@@H](C)O)NC(=O)CN(CCS)C(=O)[C@H](CCCNC(=N)N)NC(=O)CNC(=O)[C@H](CC(=O)O)NC(=O)[C@@H]2CCCN2C(=O)[C@H](Cc2ccccc2)NC(=O)CN(CCS)C1=O (cyclo(DGR[N(2-mercaptoethyl)Gly]T[Nphe]SIPPI[N(2-mercaptoethyl)Gly]FP)) |
| 4.79 ×10⁸ /M | CC[C@H](C)[C@@H]1NC(=O)[C@@H]2CCCN2C(=O)[C@@H]2CCCN2C(=O)[C@H]([C@@H](C)CC)NC(=O)[C@H](CO)NC(=O)[C@H](Cc2ccccc2)NC(=O)[C@H]([C@@H](C)O)NC(=O)[C@H](CS)NC(=O)[C@H](CCCNC(=N)N)NC(=O)CNC(=O)[C@H](CC(=O)O)NC(=O)[C@@H]2CCCN2C(=O)[C@H](Cc2ccccc2)NC(=O)CN(CCS)C1=O (cyclo(CTFSIPPI[N(2-mercaptoethyl)Gly]FPDGR)) |
| 7.56 ×10⁹ /M | CC[C@H](C)[C@@H]1NC(=O)[C@@H]2CCCN2C(=O)[C@@H]2CCCN2C(=O)[C@H]([C@@H](C)CC)NC(=O)[C@H](CO)NC(=O)[C@H](Cc2ccccc2)NC(=O)[C@H]([C@@H](C)O)NC(=O)[C@H](CCS)NC(=O)[C@H](CCCNC(=N)N)NC(=O)CNC(=O)[C@H](CC(=O)O)NC(=O)[C@@H]2CCCN2C(=O)[C@H](Cc2ccccc2)NC(=O)[C@H](CCS)NC1=O (cyclo(DGR[hCys]TFSIPPI[hCys]FP)) |
| 3.9 ×10⁸ /M | CC[C@H](C)[C@@H]1NC(=O)[C@@H]2CCCN2C(=O)[C@@H]2CCCN2C(=O)[C@H]([C@@H](C)CC)NC(=O)[C@H](CO)NC(=O)CN(Cc2ccccc2)C(=O)[C@H]([C@H](C)O)NC(=O)[C@H](CS)NC(=O)[C@H](CCCNC(=N)N)NC(=O)CNC(=O)[C@H](CC(=O)O)NC(=O)[C@@H]2CCCN2C(=O)[C@H](Cc2ccccc2)NC(=O)[C@H](CS)NC1=O |

Source: ChEMBL document CHEMBL1287733, “Implication of the disulfide bridge in trypsin inhibitor SFTI-1 in its interaction with serine proteinases” (Bioorg Med Chem, 2010)
